Among the data in BindingDB's records for patent US10836741 (Valo Early Discovery, Inc., 2020) are IC50 values, retold here.

Where only a bound is given, the exact number is not on record here.

This experiment addresses T1, Ubiquitin carboxyl-terminal hydrolase 7 [208-1102] (Human, UniProt Q93009).
T1 construct: 208-1102
As to the kind of experiment: USP7 Assay A (Ubitquin-Rhodamine 110 Assay). As for the experimental part:
Each assay was performed in a final volume of 15 μL in assay buffer containing 20 mM Tris-HCl (pH 8.0, (1M Tris-HCl, pH 8.0 solution; Corning 46-031-CM)), 1 mM GSH (L-Glutathione reduced; Sigma # G4251), 0.03% BGG (0.22 μM filtered, Sigma, # G7516-25G), and 0.01% Triton X-100 (Sigma, # T9284-10L). Nanoliter quantities of either an 8-point or 10-point, 3-fold serial dilution in DMSO was pre-dispensed into assay plates (Perkin Elmer, ProxiPlate-384 F Plus, #6008269) for a final test concentration range of either 25 μM to 11 nM or 25 μM to 1.3 nM, respectively. The final concentration of the enzyme (USP7, construct USP7 (208-1102) 6*His, Viva Biotech) in the assay was 62.5 pM. Final substrate (Ub-Rh110; Ubiquitin-Rhodamine 110, R&D Systems # U-555) concentration was 25 nM with [Ub-Rh110]<<Km. 5 μL of 2× enzyme was added to assay plates (pre-stamped with compound) preincubated with USP7 for 30 min and then 5 μL of 2×Ub-Rh110 was added to assay plates. Plates were incubated stacked for 20 min at room temperature before 5 μL of stop solution (final concentration of 10 mM citric acid in assay buffer (Sigma, #251275-500G)). Fluorescence was read on the Envision (Excitation at 485 nm and Emission at 535 nm; Perkin Elmer) or on the PheraSTAR (Excitation at 485 nm and Emission at 535 nm; BMG Labtech).

T1 sequence (Q93009 208-1102): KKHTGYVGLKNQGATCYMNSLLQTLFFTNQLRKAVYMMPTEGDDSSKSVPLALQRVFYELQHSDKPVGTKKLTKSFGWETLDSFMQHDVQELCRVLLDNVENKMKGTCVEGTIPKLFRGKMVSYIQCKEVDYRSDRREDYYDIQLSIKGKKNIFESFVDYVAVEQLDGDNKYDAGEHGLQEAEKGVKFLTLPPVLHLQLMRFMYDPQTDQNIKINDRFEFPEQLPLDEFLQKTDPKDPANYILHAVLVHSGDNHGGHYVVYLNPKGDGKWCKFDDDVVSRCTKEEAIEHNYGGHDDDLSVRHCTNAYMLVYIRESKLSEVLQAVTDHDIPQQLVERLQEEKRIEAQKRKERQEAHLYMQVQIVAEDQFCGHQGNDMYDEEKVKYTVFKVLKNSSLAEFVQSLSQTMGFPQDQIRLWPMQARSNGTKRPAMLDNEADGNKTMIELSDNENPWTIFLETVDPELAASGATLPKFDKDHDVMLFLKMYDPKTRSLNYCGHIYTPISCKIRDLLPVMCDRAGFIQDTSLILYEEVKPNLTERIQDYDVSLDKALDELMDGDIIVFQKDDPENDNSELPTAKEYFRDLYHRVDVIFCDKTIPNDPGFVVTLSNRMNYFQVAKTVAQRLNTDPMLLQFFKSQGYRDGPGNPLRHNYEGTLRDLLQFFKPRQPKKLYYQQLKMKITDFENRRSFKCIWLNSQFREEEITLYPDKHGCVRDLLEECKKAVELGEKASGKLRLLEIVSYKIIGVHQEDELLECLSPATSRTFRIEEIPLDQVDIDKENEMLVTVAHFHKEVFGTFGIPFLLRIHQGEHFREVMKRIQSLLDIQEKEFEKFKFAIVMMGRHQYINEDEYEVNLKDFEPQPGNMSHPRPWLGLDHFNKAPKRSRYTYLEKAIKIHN

`COc1cccc2c(=O)n(CC3(O)CCN(C(=O)CC(C)c4ccccc4)CC3)cnc12` (stereo unspecified) [US10836741, Example I-6]: the IC50 was under 200 nM.

One may read the IC50 as the concentration that gives 50% inhibition. A high value points to weaker potency in that assay.
